Measured values as given in US20070265210A1, “Administration of C-glycoside compounds for protecting and/or activating gammadeltaT lymphocytes” (L'OREAL, priority 2006, published 2007).

Test system: human peripheral blood cells (lymphocytes)
Assay: γδT lymphocyte proliferation induction, BrdU labeling after 3 days of culture
Type: cell-based
Design: key to cytotoxicity: *: cytotoxicity
Conditions: 3 days culture; for % stimulation relative to the control: BrdU
Protocol: The γδT lymphocyte proliferation-inducing activity is tested in the following way: human peripheral blood cells are cultured in the presence of an RPMI-type culture medium supplemented with L-glutamine (2 mM), penicillin/streptomycin (50 μg/50 IU/ml) and foetal calf serum (10%). The C-glycoside derivatives 1 and 2 are added at various concentrations (10 to 0.05 mM), along with phytohemagglutin (PHA at […]), a positive control for total lymphocyte proliferation.

| Compound | % stimulation relative to the control (0.05 mM) [%] | % stimulation relative to the control (0.1 mM) [%] | % stimulation relative to the control (0.5 mM) [%] | % stimulation relative to the control (1 mM) [%] | cytotoxicity (5 mM) | % stimulation relative to the control (5 mM) [%] | cytotoxicity (10 mM) | % stimulation relative to the control (10 mM) [%] |
| --- | --- | --- | --- | --- | --- | --- | --- | --- |
| CC(=O)C[C@@H]1OC[C@@H](O)[C@H](O)[C@H]1O [Compound 1, 1-(C-β-D-xylopyranosyl)propan-2-one] | 108 | 115 | 84 | 131 | * | 106 | * | 74 |
| CC(=O)C[C@@H]1O[C@H](CO)[C@@H](O)[C@H](O)[C@H]1O [Compound 2, 1-(C-β-D-glucopyranosyl)propan-2-one] | 64 | 76 | 90 | 123 |  | 227 |  | 224 |
